Data reported in paper PMC6826492, “Experimental and Computational Study of the Antioxidative Potential of Novel Nitro and Amino Substituted Benzimidazole/Benzothiazole-2-Carboxamides with Antiproliferative Activity” (Antioxidants, 2019).
Like-named read-outs stand apart in the source and are kept apart here. Blank lines part the entries; values can stand above or below the compound they belong to.

How the values were obtained:
[1] = DPPH free radical scavenging; type: biochemical; details: for IC50: after 30 min of incubation with 100 μM DPPH
Method: The reducing activity of investigated systems was achieved by the DPPH method according to previously described procedures with modifications to assure the use in a 96-well microplate. Briefly, equal volumes of various concentrations of tested molecules (dissolved in DMSO) were added to the solution of DPPH (final concentration 50 µM in absolute ethanol). Ethanol and DMSO were used as control solutions in line with earlier reports.

[2] = Ferric reducing/antioxidant power (FRAP assay); type: biochemical; details: for FRAP: means ± standard deviation, absorbance at 593 nm
Method: The FRAP method was carried out according to previously described procedures with some modifications to be compatible with an assay on a 96-well microplate. All tests were done in triplicate, while the obtained results were averaged and reported as Fe^2+ equivalents (Fe^2+ µmol).
By using the FRAP assay, we investigated the reducing power of investigated systems, which was monitored by the corresponding changes in the absorbance at 593 nm. This method is based on the ability of systems to reduce the ferric tripyridyl triazine complex (TPTZ) to the ferrous state (Fe^2+), which can be seen by an intense blue color. […] Good reducing ability was shown by the trimethoxy substituted benzimidazole-2-carboxamide 14 bearing the amino group (1102.5 ± 14.1 mmolFe^2+/mmolC).

[3] = cited from earlier work
[4] = test system: H 460 (lung carcinoma); assay: Antiproliferative activity in vitro (MTT assay); type: cell-based, human; details: Homo sapiens, NCI-H460, 72 h, 72 h incubation, concentration that causes 50% growth inhibition
Method: (§1) The experiments were performed on four human cell lines, including HCT 116 (colon carcinoma), H 460 (lung carcinoma), MCF-7 (breast carcinoma), and HEK 293 (human embryonic kidney cells), in line with previously published experimental procedures. Briefly, the cells were grown in DMEM medium with the addition of 10% fetal bovine serum (FBS), 2 mM L-glutamine, 100 U/mL penicillin, and 100 µg/mL streptomycin, and cultured as monolayers at 37 °C in a humidified atmosphere with 5% CO2. Cells were seeded at 2 × 10^3 cells/well in a standard 96-well microtiter plates and left to attach for 24 h. The next day, a test compound was added in five serial 10-fold dilutions. The rate of cell growth was evaluated after 72 h of incubation with MTT assays. The obtained results are expressed as IC50 values, calculated from the concentration-response curve using linear regression analysis by fitting the test concentrations that give PG values above and below the reference value (i.e., 50%). Each test was performed in quadruplicate in at least two individual experiments.

[5] = test system: HCT 116 (colon carcinoma); assay: Antiproliferative activity in vitro (MTT assay); type: cell-based, human; details: Homo sapiens, HCT-116, 72 h, 72 h incubation, concentration that causes 50% growth inhibition, read-out: IC50 HCT116
Method: as §1

[6] = test system: MCF-7 (breast carcinoma); assay: Antiproliferative activity in vitro (MTT assay); type: cell-based, human; details: Homo sapiens, MCF7, 72 h, 72 h incubation, concentration that causes 50% growth inhibition
Method: as §1

[7] = test system: HEK 293 (human embryonic kidney cells); assay: Cytotoxic activity on non-cancerous cells (MTT assay); type: cell-based; details: Homo sapiens, HEK293; non-tumor cell line; 72 h incubation, MTT; concentration that causes 50% growth inhibition
Method: as §1

[8] = test system: HCT 116 cells; assay: Antioxidative activity assay in cells (TBHP-induced ROS, DCFH-DA); type: cell-based, human; details: 100 µM TBHP + 10 µM compound, 1 h, DCFH-DA fluorescence
Method: For the antioxidative activity assay, 2.5 × 10^4 cells were seeded into 96-well microtiter plates and left to attach for 24 h. The next day, cells were washed with PBS and incubated in FBS-free DMEM medium with 25 µM DCFH-DA fluorescence dye. After 45 min of incubation, medium was discarded, and cells were washed with PBS. After the washing step, cells were incubated with 100 µM tert-Butyl hydroperoxide (TBHP) alone or in combination with antioxidative agents (50 mM N-Acetyl-L-cysteine—NAC, or 10 µM tested compounds) in PBS, for 1 h at 37 °C. DCFH-DA fluorescence was recorded on a microplate fluorimeter reader (Tecan) with excitation beam of 485 nm, while the emitted fluorescence was collected at 535 nm. All tests were presented as medians of three independent measurements, done in triplicates. One-way ANOVA with Tukey’s post-hoc test was used for statistical analysis, * p < 0.05, ** p < 0.01, *** p < 0.001.
In order to test the antioxidant activity of selected systems in tumor cells (Figure 1), we treated HCT 116 cells with tert-Butyl hydroperoxide (TBHP), a substance commonly used for inducing oxidative stress in cells and tissues, alone or in a combination with a known antioxidative agent N-Acetyl-L-cysteine (NAC) or tested compounds [35]. We measured the formation of oxidative stress by-products using 2′,7′-dichlorodihydrofluorescein diacetate (DCFH-DA). We selected system 8 showing pronounced antiproliferative/cytotoxic activity, but no antioxidant capacity in DPPH/FRAP assays, 29 showing exceptionally pronounced antioxidative activity in DPPH/FRAP tests, 14 showing negligible antiproliferative but strong antioxidant capacity in both DPPH/FRAP assays, and 26 showing similarly strong antiproliferative and radical trapping activity in DPPH assay, but rather modest reducing power in FRAP assay. None of the compounds influenced the basal level of ROS in the cells. […] On the other hand, no effect was obtained upon treatment with either 8 or 14 (Figure 1). We additionally tested the impact of the selected compounds on cellular and mitochondrial ROS production in HCT 116 cells using fluorescent dyes, DCFH-DA for cellular and MitoSOX for mitochondrial ROS detection (Supplementary Materials, Figures S53 and S54).
Figure 1 Antioxidative activity of selected systems. HCT 116 cells were treated with the combination of tert-Butyl hydroperoxide (TBHP, 100 uM) and N-Acetyl-L-cysteine (NAC, 50 mM) or tested compounds 8, 14, 26, and 29 (10 µM) for 1 h. The level of reactive oxygen species (ROS) was measured with fluorescent dye 2′,7′-dichlorodihydrofluorescein diacetate (DCFH-DA) using fluorimeter. Treatment with 100 uM TBHP alone was used as a control for ROS induction. Data presented here are the results of three independent measurements, done in triplicates. […]

[9] = test system: HCT116 cell line; assay: Cellular ROS measurement assay (DCFH-DA, flow cytometry); type: cell-based, human; details: HCT116, 10 µM compounds (2 mM H2O2 positive control), 1 h, DCF-DA; *** p < 0.001, ns not significant
Method: Figure S53. Impact of compounds on cellular ROS production was measured with fluorescent dye DCF-DA in HCT116 cell line, after the treatment with 10 µM compounds for 1h. H 2O2 was used as a positive control. Data presented here are the results of 3 independent measurements, done in duplicates. One-way ANOVA with Tukey’s post-hoc test was used for statistical analysis, ***- p < 0.001. […]
Human colon carcinoma cell line HCT116 was grown in DMEM medium with the addition of 10% fetal bovine serum (FBS), 2 mM L-glutamine, 100 U/ml penicillin and 100 µg/ml streptomycin, and cultured as monolayers at 37°C in a humidified atmosphere with 5% CO2.
Cellular ROS measurement assay
For the cellular ROS measurement assay, 2.5 × 10^4 cells were seeded into 96-well microtiter plates 24h prior to experiment. Next day, cells were trypsinized and incubated in FBS-free DMEM medium with 20 µM DCFH-DA fluorescence dye for 45 minutes. After the incubation, compounds were added without washing and cells were treated with 2 mM H 2O2 as a positive control and 10 µM compounds 8, 14 and 26 for 1 hour. Cells were washed in PBS and DCFH-DA signal was measured by flow cytometry, in FL1 channel. […]

[10] = test system: HCT116 cell line; assay: Mitochondrial ROS measurement assay (MitoSOX, flow cytometry); type: cell-based, human; details: HCT116, 10 µM compounds (3 µM Rotenone positive control), 1 h, *** p < 0.001, ns not significant
[11] = DFT calculation of bond dissociation and ionization energies; details: for BDE lower than BDE (M1): difference to M1
From the text: All geometrical parameters were optimized employing the density functional theory (DFT) B3LYP functional (unrestricted UB3LYP for the radicals), together with the 6–31+G(d) basis set, followed by the vibrational analysis using the Gaussian 16 software. Thermal corrections were extracted from the matching uncorrected vibrational frequencies, also used to confirm the obtained structures as true minima by the lack of imaginary frequencies. The final electronic energies were refined through single-point calculations with a highly flexible 6–311++G(2df,2pd) basis set. Solvent effects were considered through the implicit SMD polarizable continuum model with all parameters for pure ethanol (ε = 24.852), giving the B3LYP/6–311++G(2df,2pd)//(SMD)/B3LYP/6–31+G(d) model employed here, being fully in line with our earlier reports. As such, all computational values correspond to differences in Gibbs free energies obtained at a room temperature of 298 K and a normal pressure of 1 atm. The choice of this computational setup was additionally prompted by its success in modeling mechanisms of various antioxidants, and in reproducing kinetic and thermodynamic parameters of a variety of organic and enzymatic reactions. According to the literature, there are several mechanisms that relate to the antioxidative properties of molecules. Here, we inspected the two most frequent, and usually thermodynamically most preferred antioxidant mechanisms, namely hydrogen atom transfer (HAT), and single electron transfer (SET) that is commonly followed by proton transfer (SET-PT). All these mechanisms result in the formation of the same antioxidant radical.
HAT is a major route where the H atom (hydrogen radical, H•) is directly transferred from an antioxidant (M) to a free radical accompanied by the homolytic M–H bond cleavage. The capacity of this process is governed by the M–H bond dissociation energy (BDE), calculated as:M–H → M• + H• BDE = G(M•) + G(H•) − G(M–H).
Scavenging the free radicals can also be accomplished by donating an electron from a system M in the SET-PT process. This process is driven by the adiabatic ionization energy (IE) necessary to eject a single electron from M, calculated as:M → M•^+ + e^− IE = G(M•^+) − G(M).

[12] = monocationic, in acetonitrile ref 39

IC50 [1]: 25 ± 4 µM
SMILES: Cc1cc(C(C)(C)C)c(O)c(C(C)(C)C)c1 [BHT, butylated hydroxytoluene, reference compound]
FRAP [2]: 2089 ± 60 mmolFe^2+/mmolC
BDE ([3]; in benzene ref 45): 76.9 kcal/mol
BDE ([3]; in heptane ref 44): 79.9 kcal/mol
BDE ([3]; in toluene ref 46): 72.4 kcal/mol

IC50 [4]: > 100 µM
IC50 [5]: 76 ± 24 µM
IC50 [6]: 43 ± 15 µM
IC50 [1]: 10.7 ± 0.23 µM
SMILES: COc1cc(C(=O)Nc2nc3ccc(N)cc3[nH]2)cc(OC)c1OC [Compound 14, N-[5(6)-aminobenzimidazol-2-yl]-3,4,5-trimethoxybenzamide]
IC50 [7]: 43 ± 2 µM
antioxidant potency relative to 17 ([1]; DPPH, 14 vs 17): around four times
FRAP [2]: 1102.5 ± 14.1 mmolFe^2+/mmolC
ROS levels when oxidative stress was induced [8]: no effect
cellular ROS production (significance vs control) [9]: ns
mitochondrial ROS production (significance vs control) [10]: ns

IC50 [4]: 2 ± 1 µM
IC50 [5]: 7 ± 1 µM
IC50 [6]: 4 ± 0.7 µM
IC50 [1]: 2 ± 0.15 µM
BDE increase relative to M12 ([11]; difference to M12): 0.8 kcal/mol
SMILES: O=C(Nc1nc2ccc([N+](=O)[O-])cc2s1)c1cc(O)c(O)c(O)c1 [Compound 29, 3,4,5-trihydroxy-N-(6-nitrobenzothiazol-2-yl)benzamide]
IC50 [7]: 6 ± 4 µM
FRAP [2]: 6139.2 ± 3.0 mmolFe^2+/mmolC
FRAP reducing power in comparison to standard BHT ([2]; relative to BHT): threefold higher
ROS levels when oxidative stress was induced [8]: significantly reduced the ROS levels

BDE higher than that for BHT ([11]; difference to BHT (65.8)): 16.9 kcal/mol
SMILES: O=C(Nc1nc2ccccc2s1)c1ccccc1 [Compound M1]

BDE lower than BDE (M1) [11]: 10.1 kcal/mol
SMILES: O=C(NC1=Nc2ccccc2C1)c1ccccc1 [Compound M4]

BDE lower than BDE (M1) [11]: 7.1 kcal/mol
SMILES: Nc1ccc2nc(NC(=O)c3ccccc3)sc2c1 [Compound M6]

BDE lower than BDE (BHT) ([11]; difference to BHT (65.8)): 17.5 kcal/mol
SMILES: Nc1ccc2nc(NC(=O)c3ccccc3)sc2c1 [Compound M7]

BDE lower than BDE (M1) [11]: 4.8 kcal/mol
SMILES: O=C(Nc1nc2ccccc2s1)c1ccc(O)cc1 [Compound M8]

BDE lower than BDE (M1) [11]: 0.5 kcal/mol
SMILES: COc1ccc(C(=O)Nc2nc3ccccc3s2)cc1 [Compound M9]

lowering of antioxidative capacity (BDE increase) relative to M8 ([11]; difference to M8): 1.1 kcal/mol
SMILES: O=C(Nc1nc2ccc([N+](=O)[O-])cc2s1)c1ccc(O)cc1 [Compound M10]

more potent antioxidant (lower BDE) than nitro-substituted M21 ([11]; difference to M21): ~15 kcal/mol
SMILES: COc1cc(C(=O)Nc2nc3ccc(N)cc3[nH]2)cc(OC)c1OC [Compound M22]

SMILES: O=C(Nc1ccccc1)c1ccccc1 [Ph–CO–NH–Ph, reference compound]
BDE ([3]; earlier calculations of the authors ref 24): 85.3 kcal/mol

SMILES: Nc1ccccc1 [Ph–NH3^+]
BDE [3, 12]: 84.9 kcal/mol

SMILES: Nc1ccccc1 [aniline]
N–H BDE ([3]; in water ref 48): 89.1 kcal/mol

SMILES: NC1CCCCC1 [c-C6H11–NH3^+]
BDE [3, 12]: 113.6 kcal/mol

SMILES: O=C(O)c1cc(O)c(O)c(O)c1 [gallic acid]
calculated BDE [3]: 77.0 kcal/mol

SMILES: Oc1ccccc1 [phenol]
calculated BDE [3]: 82.9 kcal/mol
